Laboratory results reported in patent US20230071463A1, “SOLID STATE FORMS OF […] AND PROCESS FOR PREPARATION THEREOF” (TEVA PHARMACEUTICALS INTERNATIONAL GMBH, priority 2020, published 2023).

Columns and labels:
[1] = Solid state stability on exposure to high relative humidity; format: physicochemical
[2] = Solid state stability on exposure to high temperatures and high relative humidity; format: physicochemical

SMILES | stability when exposed to high relative humidity [1] | stability when exposed to high temperatures and high relative humidity [2]
[Cl][Mn-5]1234([Cl])[n+]5c6cccc5C[NH+]1[C@H]1CCCC[C@@H]1[NH+]2CC[NH+]3[C@H]1CCCC[C@@H]1[NH+]4C6 (some centres unmarked) [Form AM1, Avasopasem manganese] | stable | –
[Cl][Mn-5]1234([Cl])[n+]5c6cccc5C[NH+]1[C@H]1CCCC[C@@H]1[NH+]2CC[NH+]3[C@H]1CCCC[C@@H]1[NH+]4C6 (some centres unmarked) [Form AM2, Avasopasem manganese] | – | stable
